According to the SangsterLogP compilation:

assay: method code SF-AS, from DOI: 10.1016/0006-2952(66)90048-7; conditions: not given

Question: Which logP does the source give for `O=C(NC(=O)c1ccccc1O)c1ccccc1O` here?
Answer: The logP was 1.92.

Question: Which logP does the source give for `NC(=O)c1c(O)cccc1O` here?
Answer: The logP was 0.6.

Question: For `O=C(NC(=O)c1ccccc1O)c1ccccc1`, which logP is on record?
Answer: Its logP is 1.38.

Question: For `CC(=O)Oc1cccc(OC(C)=O)c1C(N)=O`, which logP is on record?
Answer: The logP was -0.62.

Question: With `O=C(O)c1ccccc1NC(=O)c1c(O)cccc1O` as the compound, how does the logP read?
Answer: Its logP is 0.32.

Question: With `NC(=O)c1ccc(O)cc1O` as the compound, how does the logP read?
Answer: Its logP is -0.15.

Question: Which logP does the source give for `O=C(Nc1ccccc1C(=O)O)c1ccccc1O` here?
Answer: Its logP is 0.74.

Question: Which logP does the source give for `O=C(NC(=O)c1ccc(O)cc1O)c1ccc(O)cc1O` here?
Answer: Its logP is 0.86.

Question: Which logP does the source give for `O=C(NC(=O)c1c(O)cccc1O)c1c(O)cccc1O` here?
Answer: The logP was 1.15.

same assay, conditions: pH 7.0

Question: For `NC(=O)c1ccccc1O`, which logD is on record?
Answer: The logD was 0.89.

Question: For `O=C(Nc1ccccc1)c1c(O)cccc1O`, which logD is on record?
Answer: The logD was 1.43.
